From patent US9517244B2, “Therapeutic combinations for use in neoplasia” (University of Florida Research Foundation, Inc., priority 2011, dated 2016)
Where two headings read alike, the source gives them in different places.

Experiments:
[1] = tested on: SW480; assay: MTT assay, MMR-proficient colon cancer cell line; type: cell-based; settings: Homo sapiens, SW480, 72 h, read-out: IC50 of TMZ
Experimental: (§1) The use of NSC-30049 as a chemopreventive agent for the treatment of colon cancer was also tested. In one experiment, NSC-30049 in combination with temozolomide was administered to colon cancer cell lines, including mismatch repair (MMR) proficient and MMR deficient cancer cell lines (Table 4). MMR proficient colon cancer cell lines tested included HCT-116+ch3, SW480, and HT29. MMR deficient cancer cell lines tested included HCT-116 and LoVo. Cells were pre-treated for 2 h with […] concentrations of NSC-30049 prior to treatment with temozolomide. After the treatment cells were allowed to grow for 72 hours. The cell growth inhibition was determined by MTT assay. Data presented are the mean±SE of three different estimations. The p value as compared to control of the Student's t-test is given in parenthesis. * p<0.05; ** p<0.01; *** p<0.001. Increasing the concentration of NSC-30049 decreased the IC50 of temozolomide for all cell lines tested, regardless of whether they were MMR proficient or deficient.

[2] = tested on: HCT-116 + ch3; assay: MTT assay, MMR-proficient colon cancer cell line; type: cell-based
Experimental: as §1
(§2) In addition to temozolomide, oxaliplatin is another chemotherapeutic agent used for the treatment of colon cancer. In another experiment, NSC-30049 in combination with oxaliplatin was administered to colon cancer cell lines, including mismatch repair (MMR) proficient and MMR deficient cancer cell lines (Table 5). MMR proficient colon cancer cell lines tested included HCT-116+ch3 and HT29. MMR deficient cancer cell lines tested included HCT-116 and LoVo. Cells were pre-treated with the indicated concentrations of NSC-33049 for 2 h followed by the treatment with different concentrations of oxaliplatin for additional 48 h. The cell growth inhibition was determined by MTT assay. Data presented are the mean±SE of three different estimations. The p value of Student's t-test as compared to the control is given in parenthesis (* p<0.05; ** p<0.01; *** p<0.001). Increasing the concentration of NSC-30049 decreased the IC50 of oxaliplatin for all cell lines tested, regardless of whether they were MMR proficient or deficient.

[3] = tested on: HT29; assay: MTT assay, MMR-proficient colon cancer cell line; type: cell-based
Experimental: as §1, §2

[4] = tested on: HCT-116; assay: MTT assay, MMR-deficient colon cancer cell line; type: cell-based
Experimental: as §1, §2

[5] = tested on: LoVo; assay: MTT assay, MMR-deficient colon cancer cell line; type: cell-based
Experimental: as §1, §2

[6] = tested on: A172; assay: MTT assay, brain cancer cell line; type: cell-based; settings: Homo sapiens, A 172, 120 h, read-out: IC50 of TMZ
Experimental: (§3) The use of NSC-30049 as a chemopreventive agent for the treatment of brain cancer was also tested. NSC-30049 in combination with temozolomide was administered to brain cancer cell lines, including U118, U138, U87MG, A172, and T98 cell lines (Table 6). Cells were pretreated with the indicated concentrations of NSC-30049 followed by TMZ for 120 h. After treatment, cells were processed for the determination of viability by cell proliferation assay (MTT assay). The data from the graph was used for the determination of IC50, which is presented as the mean±SE of three different estimations. Increasing the concentration of NSC-30049 decreased the IC50 of temozolomide for all cell lines tested, regardless of whether they were MMR proficient or deficient.

[7] = tested on: T98; assay: MTT assay, brain cancer cell line; type: cell-based; settings: Homo sapiens, T98, 120 h, read-out: IC50 of TMZ
Experimental: as §3

[8] = tested on: U118; assay: MTT assay, brain cancer cell line; type: cell-based; settings: 120 h, read-out: IC50 of TMZ
Experimental: as §3

[9] = tested on: U138; assay: MTT assay, brain cancer cell line; type: cell-based; settings: 120 h, read-out: IC50 of TMZ
Experimental: as §3

[10] = tested on: U87MG; assay: MTT assay, brain cancer cell line; type: cell-based; settings: Homo sapiens, U-87 MG, 120 h, read-out: IC50 of TMZ
Experimental: as §3

[11] = tested on: PANC1; assay: MTT assay, pancreatic cancer cell line; type: cell-based, human; settings: PANC1, 48 h, read-out: IC50 of Oxaliplatin
[12] = tested on: BxPC3; assay: MTT assay, pancreatic cancer cell line; type: cell-based, human; settings: BxPC3, 48 h, read-out: IC50 of Oxaliplatin
[13] = tested on: colon cancer stem cells; assay: cell growth inhibition of colon cancer stem cells; type: cell-based, human; settings: alone, 1.25 μM, 72 h
Experimental: (§4) Cells were treated with 1.25 μM of NSC-30049 and 1.25 μM of OPT either alone or in combination for 72 h. Data are mean±SD of triplicate experiments. […] Cells were treated with 1.25 μM of NSC-30049 and 1.25 μM of OPT either alone or in combination for 72 h. Fold change in gene expression values is shown as mean±SD of three experiments and are normalized to GAPDH gene expression.
(§5) The effect of administration of NSC-30049 in combination with oxaliplatin (OPT) was also examined in human parental cancer cells and colon cancer stem cells (FIG. 9A). Cells were treated with 1.25 μM of NSC-30049 and […] of OPT either alone or in combination for 72 h. Cell growth inhibition was assayed. Data presented are mean±SD of triplicate experiments.

[14] = tested on: human parental cancer cells; assay: cell growth inhibition of parental cancer cells; type: cell-based; settings: alone, 1.25 μM, 72 h
Experimental: as §4, §5

[15] = Homo sapiens, HCT-116, 72 h, NSC-30049 0 μM, 72 h, read-out: IC50 of TMZ
[16] = Homo sapiens, HCT-116, 72 h, NSC-30049 0.5 μM, 72 h, read-out: IC50 of TMZ
[17] = Homo sapiens, HCT-116, 72 h, NSC-30049 1.0 μM, 72 h, read-out: IC50 of TMZ
[18] = Homo sapiens, HCT-116, 72 h, NSC-30049 2.5 μM, 72 h, read-out: IC50 of TMZ
[19] = NSC-30049 0 μM, 48 h, read-out: IC50 of oxaliplatin
[20] = NSC-30049 1.0 μM, 48 h, read-out: IC50 of oxaliplatin
[21] = NSC-30049 2.5 μM, 48 h, read-out: IC50 of oxaliplatin
[22] = NSC-30049 5.0 μM, 48 h, read-out: IC50 of oxaliplatin

Structure (SMILES): Cn1nnc2c(C(N)=O)ncn2c1=O [TMZ, Temozolomide]
- IC50 ([1]; NSC-30049 0 μM): 377 ± 12 µM
- IC50 ([1]; NSC-30049 0.5 μM): 325 ± 18 µM
- IC50 ([1]; NSC-30049 1.0 μM): 167 ± 49 µM
- IC50 ([1]; NSC-30049 2.5 μM): 0.47 ± 0.03 µM
- IC50 [2, 15]: 236 ± 23 µM
- IC50 [2, 16]: 206 ± 13 µM
- IC50 [2, 17]: 153 ± 10 µM
- IC50 [2, 18]: 0.73 ± 0.04 µM
- IC50 ([2]; Homo sapiens, HCT-116, 72 h, NSC-30049 5.0 μM, 72 h, read-out: IC50 of TMZ): 0.35 ± 0.01 µM
- IC50 ([3]; Homo sapiens, HT-29, 72 h, NSC-30049 0 μM, 72 h, read-out: IC50 of TMZ): 1450 ± 144 µM
- IC50 ([3]; Homo sapiens, HT-29, 72 h, NSC-30049 0.5 μM, 72 h, read-out: IC50 of TMZ): 1270 ± 60 µM
- IC50 ([3]; Homo sapiens, HT-29, 72 h, NSC-30049 1.0 μM, 72 h, read-out: IC50 of TMZ): 815 ± 93 µM
- IC50 ([3]; Homo sapiens, HT-29, 72 h, NSC-30049 2.5 μM, 72 h, read-out: IC50 of TMZ): 248 ± 59 µM
- IC50 ([3]; Homo sapiens, HT-29, 72 h, NSC-30049 5.0 μM, 72 h, read-out: IC50 of TMZ): 5.33 ± 0.07 µM
- IC50 [4, 15]: 620 ± 11 µM
- IC50 [4, 16]: 361 ± 10 µM
- IC50 [4, 17]: 160 ± 63 µM
- IC50 [4, 18]: 3.81 ± 0.11 µM
- IC50 ([5]; Homo sapiens, 72 h, NSC-30049 0 μM, 72 h, read-out: IC50 of TMZ): 1106 ± 0.02 µM
- IC50 ([5]; Homo sapiens, 72 h, NSC-30049 0.5 μM, 72 h, read-out: IC50 of TMZ): 366 ± 6 µM
- IC50 ([5]; Homo sapiens, 72 h, NSC-30049 1.0 μM, 72 h, read-out: IC50 of TMZ): 8 ± 0.8 µM
- IC50 ([5]; Homo sapiens, 72 h, NSC-30049 2.5 μM, 72 h, read-out: IC50 of TMZ): 3.82 ± 0.09 µM
- IC50 ([6]; NSC-30049 0 μM): 154 ± 6.8 µM
- IC50 ([6]; NSC-30049 1.0 μM): 89.5 ± 7.8 µM
- IC50 ([6]; NSC-30049 2.5 μM): 82.9 ± 5.1 µM
- IC50 ([6]; NSC-30049 5.0 μM): 75.1 ± 5.2 µM
- IC50 ([7]; NSC-30049 0 μM): 554 ± 53.9 µM
- IC50 ([7]; NSC-30049 1.0 μM): 511 ± 14.7 µM
- IC50 ([7]; NSC-30049 2.5 μM): 382 ± 5.9 µM
- IC50 ([7]; NSC-30049 5.0 μM): 245 ± 8.7 µM
- IC50 ([8]; NSC-30049 0 μM): 136 ± 3.7 µM
- IC50 ([8]; NSC-30049 1.0 μM): 78.4 ± 1.3 µM
- IC50 ([8]; NSC-30049 2.5 μM): 14.5 ± 2.5 µM
- IC50 ([8]; NSC-30049 5.0 μM): 1.1 ± 3 µM
- IC50 ([9]; NSC-30049 0 μM): 432 ± 19.1 µM
- IC50 ([9]; NSC-30049 1.0 μM): 278 ± 14.6 µM
- IC50 ([9]; NSC-30049 2.5 μM): 3.8 ± 0.4 µM
- IC50 ([9]; NSC-30049 5.0 μM): 0.8 ± 0.02 µM
- IC50 ([10]; NSC-30049 0 μM): 493 ± 83.9 µM
- IC50 ([10]; NSC-30049 1.0 μM): 33 ± 5.1 µM
- IC50 ([10]; NSC-30049 2.5 μM): 19.9 ± 10.5 µM
- IC50 ([10]; NSC-30049 5.0 μM): 13.7 ± 8.5 µM

Structure (SMILES): O=C1[O][Pt]2([NH][C@@H]3CCCC[C@H]3[NH]2)[O]C1=O [Oxaliplatin, oxaliplatin]
- IC50 ([11]; NSC-30049 0 μM): 14.5 ± 0.38 µM
- IC50 ([11]; NSC-30049 0.5 μM): 0.38 ± 0.06 µM
- IC50 ([11]; NSC-30049 1.0 μM): 0.13 ± 0.04 µM
- IC50 ([11]; NSC-30049 2.5 μM): 0.37 ± 0.22 µM
- IC50 ([12]; NSC-30049 0 μM): 2 ± 0.4 µM
- IC50 ([12]; NSC-30049 0.5 μM): 0.71 ± 0.39 µM
- IC50 ([12]; NSC-30049 1.0 μM): 0.33 ± 0.06 µM
- IC50 ([12]; NSC-30049 2.5 μM): 0.01 µM
- IC50 [2, 19]: 5.83 ± 0.36 µM
- IC50 [2, 20]: 4.98 ± 0.17 µM
- IC50 [2, 21]: 0.91 ± 0.12 µM
- IC50 [2, 22]: 0.03 µM
- IC50 [3, 19]: 0.92 ± 0.03 µM
- IC50 [3, 20]: 0.82 ± 0.06 µM
- IC50 [3, 21]: 0.59 ± 0.02 µM
- IC50 [3, 22]: 0.03 µM
- IC50 [4, 19]: 1.5 ± 0.01 µM
- IC50 [4, 20]: 0.78 ± 0.02 µM
- IC50 [4, 21]: 0.03 µM
- IC50 [4, 22]: 0.02 µM
- IC50 [5, 19]: 0.75 ± 0.02 µM
- IC50 ([5]; NSC-30049 0.5 μM, 48 h, read-out: IC50 of oxaliplatin): 0.59 ± 0.04 µM
- IC50 [5, 20]: 0.07 ± 0.02 µM
- IC50 [5, 21]: 0.03 µM
- inhibition of growth [13]: ~40%
- inhibition of growth [14]: ~65%
